Drawing on ChEMBL document CHEMBL1158395, “Discovery of novel acetanilide derivatives as potent and selective beta3-adrenergic receptor agonists” (Eur J Med Chem, 2009), this text covers EC50 and Activity for 23 compounds.

The target of assay [1] is Beta-3 adrenergic receptor (Homo sapiens, UniProt P13945). The assay can be described thus: Agonist activity at human cloned adrenergic beta3 receptor expressed in CHO cells assessed as increase in cAMP production after 2 days by radioimmunoassay. The class given is functional, cell-based. (Cyclic AMP is a second messenger, typically raised through Gs and lowered through Gi signalling.)

Assay [2] concerns the target Beta-2 adrenergic receptor (Homo sapiens, UniProt P07550).
Description: Agonist activity at human cloned adrenergic beta2 receptor expressed in CHO cells assessed as increase in cAMP production after 2 days by radioimmunoassay
In assay [3] the target is Beta-1 adrenergic receptor (Homo sapiens, UniProt P08588).
Description: Agonist activity at human cloned adrenergic beta-1 receptor expressed in CHO cells assessed as increase in cAMP production after 2 days by radioimmunoassay
The next assay has as its system Mus musculus. The experiment in a line: Hypoglycemic activity in diabetic kk mouse assessed as reduction in plasma glucose levels at 30 mg/kg, po administered for 4 days measured after 15 to 18 hrs by glucose oxidase method. The class given is functional. Further details: scale not given: the % may be the effect or the level left.

Beta-2 adrenergic receptor, sequence (P07550 whole entry): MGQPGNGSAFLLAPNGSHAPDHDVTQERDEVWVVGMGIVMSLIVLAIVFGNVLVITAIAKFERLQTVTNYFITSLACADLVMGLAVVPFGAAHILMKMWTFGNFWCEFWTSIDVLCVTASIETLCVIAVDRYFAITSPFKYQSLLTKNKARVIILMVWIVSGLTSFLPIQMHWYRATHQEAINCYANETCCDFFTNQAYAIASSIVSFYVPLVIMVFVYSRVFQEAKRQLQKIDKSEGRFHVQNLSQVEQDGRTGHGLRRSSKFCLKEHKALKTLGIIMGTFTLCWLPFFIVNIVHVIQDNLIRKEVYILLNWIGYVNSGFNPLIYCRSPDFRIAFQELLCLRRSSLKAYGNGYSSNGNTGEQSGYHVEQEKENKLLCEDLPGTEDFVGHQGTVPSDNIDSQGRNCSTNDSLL
Beta-3 adrenergic receptor, sequence (P13945 whole entry): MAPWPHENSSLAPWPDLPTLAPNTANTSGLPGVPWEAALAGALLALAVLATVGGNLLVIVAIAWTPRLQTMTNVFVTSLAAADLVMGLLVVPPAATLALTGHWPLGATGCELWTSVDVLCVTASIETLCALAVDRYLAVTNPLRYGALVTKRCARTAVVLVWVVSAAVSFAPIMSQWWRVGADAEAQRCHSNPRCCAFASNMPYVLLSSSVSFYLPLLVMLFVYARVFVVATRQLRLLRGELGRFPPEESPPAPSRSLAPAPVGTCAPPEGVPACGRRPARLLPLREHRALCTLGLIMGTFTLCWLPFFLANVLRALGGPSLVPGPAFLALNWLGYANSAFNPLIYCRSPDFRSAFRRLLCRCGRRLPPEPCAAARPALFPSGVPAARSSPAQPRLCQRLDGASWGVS
Beta-1 adrenergic receptor, sequence (P08588 whole entry): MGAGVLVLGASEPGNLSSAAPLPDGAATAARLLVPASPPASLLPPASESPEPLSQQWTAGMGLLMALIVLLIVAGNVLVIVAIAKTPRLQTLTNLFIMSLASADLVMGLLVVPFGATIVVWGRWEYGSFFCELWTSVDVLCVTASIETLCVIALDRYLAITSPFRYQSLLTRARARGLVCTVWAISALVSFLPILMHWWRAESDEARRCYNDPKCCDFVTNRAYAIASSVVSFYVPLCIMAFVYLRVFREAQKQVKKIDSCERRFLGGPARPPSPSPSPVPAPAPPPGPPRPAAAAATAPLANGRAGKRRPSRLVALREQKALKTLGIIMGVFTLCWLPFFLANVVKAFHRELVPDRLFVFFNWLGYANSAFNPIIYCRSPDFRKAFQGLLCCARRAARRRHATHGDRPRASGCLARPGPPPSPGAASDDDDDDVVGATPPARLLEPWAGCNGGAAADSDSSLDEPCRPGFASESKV

As usually defined, the EC50 is the concentration needed to bring the measured effect to its halfway point. As for `O=S(=O)(Nc1ccc(CCNC[C@H](O)COc2ccc(O)cc2)cc1)c1ccccc1`, the EC50 in assay [1] is 78 nM; in assay [2], over 100000 nM; in assay [3], 1600 nM.
Turning to `O=C(Cc1ccccn1)Nc1ccc(CCNC[C@H](O)COc2ccc(O)cc2)cc1`, the figures for the 50% effective concentration (EC50) in assay [1], in assay [2] and in assay [3] were 290 nM, over 100000 nM and 2700 nM, respectively. The Activity in the assay on Mus musculus stood at 32%.
With `O=C(Cc1cccs1)Nc1ccc(CCNC[C@H](O)COc2ccc(O)cc2)cc1`, the EC50 in assay [1] was 500 nM; in assay [2], over 100000 nM; in assay [3] it was 550 nM.
For `NC(C(=O)Nc1ccc(CCNC[C@H](O)COc2ccc(O)cc2)cc1)c1ccccc1` (some centres not stated), the EC50 in assay [1] was 960 nM; in assay [2], over 100000 nM; in assay [3], 660 nM.
The matching figures for `O=C(Cc1ccccc1)Nc1ccc(CCNC[C@H](O)COc2ccc(O)cc2)cc1`: 1700 nM, over 100000 nM and 760 nM.
The matching figures for `COc1ccc(CC(=O)Nc2ccc(CCNC[C@H](O)COc3ccc(O)cc3)cc2)cc1`: 1700 nM, over 100000 nM and 280 nM.
As to `O=C(Nc1ccc(CCNC[C@H](O)COc2ccc(O)cc2)cc1)C(c1ccccc1)c1ccccc1`, the concentration giving a half-maximal response (EC50) in assay [1] is 120 nM; in assay [2], over 100000 nM; in assay [3] it was 180 nM.
The matching figures for `O=C(Nc1ccc(CCNC[C@H](O)COc2ccc(O)cc2)cc1)C(O)c1ccccc1` (some centres not stated): 960 nM, over 100000 nM and 590 nM.
On to `O=C(Cc1ccsc1)Nc1ccc(CCNC[C@H](O)COc2ccc(O)cc2)cc1`, for which the figures for the EC50 in assay [1], in assay [2] and in assay [3] were 550 nM, over 100000 nM and 490 nM, respectively.
The matching figures for `O=C(Cc1ccc2ccccc2n1)Nc1ccc(CCNC[C@H](O)COc2ccc(O)cc2)cc1`: 650 nM, over 100000 nM and 1700 nM.
For the compound `O=C(CC1C=Nc2ccccc21)Nc1ccc(CCNC[C@H](O)COc2ccc(O)cc2)cc1` (some centres not stated), the results for the EC50 in assay [1], in assay [2] and in assay [3] were 490 nM, over 100000 nM and 550 nM, respectively.
`O=C(Cc1cnccn1)Nc1ccc(CCNC[C@H](O)COc2ccc(O)cc2)cc1`: the EC50 in assay [1] is 83 nM; in assay [2], over 100000 nM; in assay [3] it was 3100 nM. Further, in the assay with Mus musculus, the Activity came to 13%.
Regarding `COc1ccccc1CC(=O)Nc1ccc(CCNC[C@H](O)COc2ccc(O)cc2)cc1`, the figures for the EC50 in assay [1], in assay [2] and in assay [3] were 360 nM, over 100000 nM and 960 nM, respectively.
The matching figures for `COc1cccc(CC(=O)Nc2ccc(CCNC[C@H](O)COc3ccc(O)cc3)cc2)c1`: 560 nM, over 100000 nM and 710 nM.
For `O=C(Cc1ccc2ccccc2c1)Nc1ccc(CCNC[C@H](O)COc2ccc(O)cc2)cc1`, in that order: 240 nM, over 100000 nM and 150 nM.
For `O=C(Cc1cccc(Cl)c1)Nc1ccc(CCNC[C@H](O)COc2ccc(O)cc2)cc1`, in that order: 890 nM, over 100000 nM and 83 nM.
Turning to `O=C(Cc1ccncc1)Nc1ccc(CCNC[C@H](O)COc2ccc(O)cc2)cc1`, the EC50 in assay [1] was 520 nM; in assay [2] it was over 100000 nM; in assay [3], 260 nM.
The matching figures for `O=C(Cc1cccnc1)Nc1ccc(CCNC[C@H](O)COc2ccc(O)cc2)cc1`: 1500 nM, over 100000 nM and 910 nM.
The matching figures for `O=C(Cc1cc2ccccc2cn1)Nc1ccc(CCNC[C@H](O)COc2ccc(O)cc2)cc1`: 140 nM, over 100000 nM and 350 nM.
On to `O=C(Cc1ncccn1)Nc1ccc(CCNC[C@H](O)COc2ccc(O)cc2)cc1`, for which the figures for the EC50 in assay [1], in assay [2] and in assay [3] were 110 nM, over 100000 nM and over 100000 nM, respectively. The Activity with Mus musculus is 20%.
For `O=C(Cc1ccc(Cl)cc1)Nc1ccc(CCNC[C@H](O)COc2ccc(O)cc2)cc1`, the figures for the EC50 in assay [1], in assay [2] and in assay [3] were 1200 nM, over 100000 nM and 190 nM, respectively.
The matching figures for `O=C(Cc1ccccc1Cl)Nc1ccc(CCNC[C@H](O)COc2ccc(O)cc2)cc1`: 740 nM, over 100000 nM and 720 nM.
The matching figures for `O=C(Cc1cccc2ccccc12)Nc1ccc(CCNC[C@H](O)COc2ccc(O)cc2)cc1`: 470 nM, over 100000 nM and 600 nM.
